Assay results as given in patent US8293511B2, “Production of β-Lactam antibiotics” (DSM IP Assets B.V., priority 2006, dated 2012).

Experiments:
IPNS = conditions: Huffman et al. J. Med. Chem. 1992; cited from earlier work
[1] = tested on: Micrococcus luteus ATCC9341; test: Bioassay development: growth in 2xTY medium with serial dilutions of antibiotic, OD600; format: cell-based; conditions: 16 hours
Description: (§1) The bacterial strains Escherichia coli ESS, Bacillus subtilis ATCC6633 and Micrococcus luteus ATCC9341 were grown overnight in 2×TY-medium at 30° C. and 280 rpm. After 16 hours of growth, the OD^600 was measured. Typically, the OD^600 amounts 5.0, ranging from 2.0 to 8.0.
(§2) A solution of amoxicillin was made at a concentration of 7 mg/ml. Subsequently, serial dilutions were made ranging from 1 mg/l down to 0.001 mg/l. MilliQ water served as a negative control.
(§3) In a 96 wells microplate, 25 μl of the serial dilutions were pipetted in the wells. Each microplate was prepared in duplicate. The overnight bacterial cultures were diluted in fresh 2×TY-medium to a final OD^600 of 0.01. To each well, 150 μl of the diluted bacterial cultures was added. The microplates were covered with a lid, and incubated overnight at 25° C. and the duplicate microplate at 37° C.
(§4) After 16 hours of incubation, the OD^600 was read in a microplate reader. From the results, the concentration of amoxicillin still allowing uninhibited growth of the test microorganisms can be read.
(§5) A solution of ampicillin was made at a concentration of 7 mg/ml. Subsequently, serial dilutions were made ranging from 1 mg/l down to 0.001 mg/l. MilliQ water served as a negative control.
as §3, with “gas permeable adhesive seal,” for “lid,”
(§6) After 16 hours of incubation, the OD^600 was read in a microplate reader. From the results, the concentration of ampicillin still allowing uninhibited growth of the test microorganisms can be read.

[2] = tested on: Escherichia coli ESS (DS10031); test: as above; format: cell-based; conditions: 16 hours
Description: as §1, §2, §3, §4, §5
as §3, with “gas permeable adhesive seal,” for “lid,”
as §6

[3] = tested on: Bacillus subtilis ATCC6633; test: as above; format: cell-based; conditions: 16 hours
Description: as §1, §2, §3, §4, §5
as §3, with “gas permeable adhesive seal,” for “lid,”
as §6

Compound: CC(C)[C@@H](NC(=O)[C@H](CS)NC(=O)Cc1ccc(O)cc1)C(=O)O [p-hydroxyphenylacetyl-L-cysteinyl-D-valine]
- Antibiotic activity after treatment of the substrate with IPNS (IPNS): not to result in antibiotic activity

Compound: m-COOH-DL-phenylglycyl-L-cysteinyl-D-valine
- Antibiotic activity after treatment of the substrate with IPNS (IPNS): not to result in antibiotic activity

Compound: CC1(C)S[C@@H]2[C@H](NC(=O)[C@H](N)c3ccc(O)cc3)C(=O)N2[C@H]1C(=O)O [Amoxicillin, amoxicillin]
- Concentration of amoxicillin still allowing uninhibited growth in 2xTY medium ([1]; at 25° C.): 0.001 mg/L
- Concentration of amoxicillin still allowing uninhibited growth in 2xTY medium ([1]; at 37° C.): 0.002 mg/L
- Concentration of amoxicillin still allowing uninhibited growth in 2xTY medium ([2]; at 25° C.): 0.1 mg/L
- Concentration of amoxicillin still allowing uninhibited growth in 2xTY medium ([2]; at 37° C.): 0.1 mg/L
- Concentration of amoxicillin still allowing uninhibited growth in 2xTY medium ([3]; at 25° C.): 1.0 mg/L
- Concentration of amoxicillin still allowing uninhibited growth in 2xTY medium ([3]; at 37° C.): 5 mg/L

Compound: CC1(C)S[C@@H]2[C@H](NC(=O)[C@H](N)c3ccccc3)C(=O)N2[C@H]1C(=O)O [Ampicillin, ampicillin]
- Concentration of ampicillin still allowing uninhibited growth in 2xTY medium ([1]; at 25° C.): 0.001 mg/L
- Concentration of ampicillin still allowing uninhibited growth in 2xTY medium ([1]; at 37° C.): 0.002 mg/L
- Concentration of ampicillin still allowing uninhibited growth in 2xTY medium ([2]; at 25° C.): 0.05 mg/L
- Concentration of ampicillin still allowing uninhibited growth in 2xTY medium ([2]; at 37° C.): 0.05 mg/L
- Concentration of ampicillin still allowing uninhibited growth in 2xTY medium ([3]; at 25° C.): 0.5 mg/L
- Concentration of ampicillin still allowing uninhibited growth in 2xTY medium ([3]; at 37° C.): 2.5 mg/L
